According to patent publication US9636418B2 (priority 2013, dated 2017):
Values joined by “and” are separate entries in the source; they are usually repeats but may differ in a detail not shown here. Equal entries are not always repeated. “Also recorded” adds a separate entry of the source. Where two headings read alike, the source gives them in different places.

Assays:
[1] = human plasma, 37° C., incubation 0 hr
in vitro [2] = conditions: human, plasma
in vitro [3] = conditions: monkey, plasma
[4] = cyno plasma, 37° C., incubation 0 hr
hNav1.5 [5] = target: T1, hNav1.5 (Homo sapiens, UniProt Q14524); assay: cell-based; conditions: IonWorks Quattro; read-out: IC50 Nav1.5
hNav1.3 [6] = target: T2, hNav1.3 (Homo sapiens, UniProt Q9NY46); type: cell-based
hNav1.4 [7] = target: T3, hNav1.4 (Homo sapiens, UniProt P35499); type: cell-based
hNav1.5 [8] = target: T1, hNav1.5; assay: cell-based; conditions: PatchXpress; * = at high concentrations compound would wash off slowly or not at all; read-out: PX hNav1.5 Tonic IC50
[9] = system: TTX-sensitive Nav channels in mouse DRG neuron; type: cell-based
hNav1.5 [10] = target: T1, hNav1.5; assay: cell-based; type: cell-based
hNav1.8 [11] = assay: cell-based; type: cell-based, human
hNav1.8 [12] = target: hNav1.8 (Homo sapiens, UniProt Q9Y5Y9); assay: cell-based; type: cell-based; conditions: WCPC, n=2
hNav1.7 [13] = target: T4, hNav1.7 (Homo sapiens, UniProt Q15858); assay: cell-based; type: cell-based; conditions: for 1.x/1.7, partially inactivated: hNav1.7 vs hNav1.7, partially inactivated
in vitro [14] = conditions: mouse, plasma
hNav1.4 [15] = target: T3, hNav1.4; assay: cell-based; conditions: for IC50: IonWorks Quattro, read-out: IC50 Nav1.4
hNav1.3 [16] = target: T2, hNav1.3; assay: cell-based; conditions: IonWorks Quattro; read-out: IC50 Nav1.3
hNav1.7 [17] = target: T4, hNav1.7; assay: cell-based; type: cell-based; conditions: PatchXpress; * = at high concentrations compound would wash off slowly or not at all; read-out: PX hNav1.7 Tonic IC50
[18] = mouse plasma, 37° C., incubation time 0 hr (normalisation point)
in vitro [19] = conditions: rat, plasma
[20] = rat plasma, 37° C., incubation time 0 hr (normalisation point)
hNav1.7 [21] = target: T4, hNav1.7; assay: cell-based; conditions: IonWorks Quattro; read-out: IC50 Nav1.7
hNav1.4 [22] = target: T3, hNav1.4; assay: cell-based; conditions: PatchXpress; * = at high concentrations compound would wash off slowly or not at all; read-out: PX hNav1.4 Tonic IC50
male CD-1 mice [23] = conditions: mouse, in vivo
male Sprague-Dawley rats = type: in vivo, rat; conditions: rat, in vivo
male CD-1 mice [24] = conditions: mouse, in vivo; remark: listed apart in the source

T4 sequence (Q15858 whole entry): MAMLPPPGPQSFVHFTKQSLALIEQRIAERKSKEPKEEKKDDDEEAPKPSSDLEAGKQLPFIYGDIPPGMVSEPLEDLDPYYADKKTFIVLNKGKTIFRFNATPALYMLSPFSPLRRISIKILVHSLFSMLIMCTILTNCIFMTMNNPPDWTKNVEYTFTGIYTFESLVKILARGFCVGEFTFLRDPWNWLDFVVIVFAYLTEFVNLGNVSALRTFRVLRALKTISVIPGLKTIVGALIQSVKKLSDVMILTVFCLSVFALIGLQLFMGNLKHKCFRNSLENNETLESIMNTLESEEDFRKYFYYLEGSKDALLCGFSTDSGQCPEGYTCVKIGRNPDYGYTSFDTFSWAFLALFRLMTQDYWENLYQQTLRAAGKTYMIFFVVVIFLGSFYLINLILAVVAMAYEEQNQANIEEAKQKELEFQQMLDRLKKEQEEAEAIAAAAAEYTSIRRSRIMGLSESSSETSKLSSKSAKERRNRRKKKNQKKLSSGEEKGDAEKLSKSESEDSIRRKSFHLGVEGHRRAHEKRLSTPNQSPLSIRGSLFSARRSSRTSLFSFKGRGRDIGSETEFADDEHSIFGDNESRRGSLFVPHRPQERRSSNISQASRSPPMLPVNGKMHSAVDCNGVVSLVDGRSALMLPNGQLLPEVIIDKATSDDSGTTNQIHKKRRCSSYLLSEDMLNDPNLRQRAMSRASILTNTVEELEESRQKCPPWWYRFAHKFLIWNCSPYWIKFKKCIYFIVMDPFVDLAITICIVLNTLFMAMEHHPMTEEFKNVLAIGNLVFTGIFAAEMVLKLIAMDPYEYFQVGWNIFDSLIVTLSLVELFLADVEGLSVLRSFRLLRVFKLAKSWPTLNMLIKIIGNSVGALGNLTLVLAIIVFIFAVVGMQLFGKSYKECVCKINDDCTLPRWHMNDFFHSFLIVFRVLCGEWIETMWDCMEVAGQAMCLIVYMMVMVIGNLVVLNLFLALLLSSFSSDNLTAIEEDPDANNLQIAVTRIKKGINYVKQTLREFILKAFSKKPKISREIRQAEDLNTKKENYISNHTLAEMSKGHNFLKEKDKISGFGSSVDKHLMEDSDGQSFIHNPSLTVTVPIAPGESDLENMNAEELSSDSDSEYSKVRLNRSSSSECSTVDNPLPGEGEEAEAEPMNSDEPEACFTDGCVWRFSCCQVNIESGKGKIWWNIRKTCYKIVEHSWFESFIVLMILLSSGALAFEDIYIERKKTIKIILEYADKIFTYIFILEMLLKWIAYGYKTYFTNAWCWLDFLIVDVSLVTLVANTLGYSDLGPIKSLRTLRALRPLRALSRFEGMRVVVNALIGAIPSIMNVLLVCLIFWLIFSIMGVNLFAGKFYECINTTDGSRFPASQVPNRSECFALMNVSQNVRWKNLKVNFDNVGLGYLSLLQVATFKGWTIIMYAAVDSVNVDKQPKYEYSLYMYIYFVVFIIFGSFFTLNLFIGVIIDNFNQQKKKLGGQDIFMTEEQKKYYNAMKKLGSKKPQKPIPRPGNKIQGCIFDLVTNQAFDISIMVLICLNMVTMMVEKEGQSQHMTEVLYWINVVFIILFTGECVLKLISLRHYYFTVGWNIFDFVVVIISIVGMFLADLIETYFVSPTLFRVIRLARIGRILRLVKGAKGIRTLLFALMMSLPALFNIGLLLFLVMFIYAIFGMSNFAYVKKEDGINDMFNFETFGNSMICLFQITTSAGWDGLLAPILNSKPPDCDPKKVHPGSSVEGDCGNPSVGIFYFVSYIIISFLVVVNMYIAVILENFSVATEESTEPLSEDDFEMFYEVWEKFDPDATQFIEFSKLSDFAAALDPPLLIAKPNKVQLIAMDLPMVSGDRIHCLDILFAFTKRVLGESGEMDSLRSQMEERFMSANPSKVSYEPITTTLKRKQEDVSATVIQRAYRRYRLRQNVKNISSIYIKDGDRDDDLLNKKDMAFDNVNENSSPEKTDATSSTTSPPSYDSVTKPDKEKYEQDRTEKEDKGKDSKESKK
T3 sequence (P35499 whole entry): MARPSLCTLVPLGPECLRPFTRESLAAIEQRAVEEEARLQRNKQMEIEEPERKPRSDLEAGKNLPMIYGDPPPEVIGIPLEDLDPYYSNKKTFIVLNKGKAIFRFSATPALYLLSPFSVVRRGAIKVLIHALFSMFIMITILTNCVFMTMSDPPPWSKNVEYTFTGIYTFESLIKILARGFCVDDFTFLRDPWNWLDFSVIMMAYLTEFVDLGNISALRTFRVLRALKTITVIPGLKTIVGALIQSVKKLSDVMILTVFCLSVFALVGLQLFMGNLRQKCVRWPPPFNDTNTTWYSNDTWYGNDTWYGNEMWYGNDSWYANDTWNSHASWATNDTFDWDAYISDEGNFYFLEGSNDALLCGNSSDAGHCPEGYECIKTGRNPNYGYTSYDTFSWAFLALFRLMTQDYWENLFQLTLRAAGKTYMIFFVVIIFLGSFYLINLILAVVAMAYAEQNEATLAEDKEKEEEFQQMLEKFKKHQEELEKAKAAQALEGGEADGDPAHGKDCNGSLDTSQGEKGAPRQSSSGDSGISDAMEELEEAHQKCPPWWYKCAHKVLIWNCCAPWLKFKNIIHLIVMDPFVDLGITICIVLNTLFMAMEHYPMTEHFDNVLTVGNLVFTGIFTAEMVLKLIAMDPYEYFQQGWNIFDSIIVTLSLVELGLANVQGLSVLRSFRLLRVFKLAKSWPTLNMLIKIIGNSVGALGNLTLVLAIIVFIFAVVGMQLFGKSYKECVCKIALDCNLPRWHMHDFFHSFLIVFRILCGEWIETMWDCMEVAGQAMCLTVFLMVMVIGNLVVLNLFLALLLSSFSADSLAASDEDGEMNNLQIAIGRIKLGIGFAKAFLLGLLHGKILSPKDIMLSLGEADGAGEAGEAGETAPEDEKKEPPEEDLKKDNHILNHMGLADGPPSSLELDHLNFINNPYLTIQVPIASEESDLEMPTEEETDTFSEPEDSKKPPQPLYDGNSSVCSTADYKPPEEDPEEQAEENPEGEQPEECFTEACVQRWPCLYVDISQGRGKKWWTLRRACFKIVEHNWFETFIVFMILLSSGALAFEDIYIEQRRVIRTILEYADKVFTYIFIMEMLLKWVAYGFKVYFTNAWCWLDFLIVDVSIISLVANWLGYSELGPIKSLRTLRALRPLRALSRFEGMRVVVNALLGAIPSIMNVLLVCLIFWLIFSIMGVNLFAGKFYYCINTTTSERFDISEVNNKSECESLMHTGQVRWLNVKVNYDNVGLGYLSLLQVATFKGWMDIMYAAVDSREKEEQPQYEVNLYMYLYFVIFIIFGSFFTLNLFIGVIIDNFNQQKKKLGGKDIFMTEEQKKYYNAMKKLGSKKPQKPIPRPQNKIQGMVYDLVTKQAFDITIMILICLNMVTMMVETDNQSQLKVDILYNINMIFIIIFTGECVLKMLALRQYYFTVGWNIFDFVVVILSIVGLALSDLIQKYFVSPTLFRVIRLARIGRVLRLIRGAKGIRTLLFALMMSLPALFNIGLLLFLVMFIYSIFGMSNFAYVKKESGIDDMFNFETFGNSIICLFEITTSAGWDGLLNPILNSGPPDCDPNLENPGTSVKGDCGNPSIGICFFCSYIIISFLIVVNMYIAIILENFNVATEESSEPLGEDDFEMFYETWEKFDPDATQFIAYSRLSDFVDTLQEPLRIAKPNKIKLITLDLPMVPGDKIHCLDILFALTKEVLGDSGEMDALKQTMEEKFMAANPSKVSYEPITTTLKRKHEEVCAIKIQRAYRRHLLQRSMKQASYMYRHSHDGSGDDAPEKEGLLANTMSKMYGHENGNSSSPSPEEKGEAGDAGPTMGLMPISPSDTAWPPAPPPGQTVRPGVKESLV

Row | Compound | IC50 (hNav1.5 [5]) | IC50 (hNav1.5 [8]) | 1.x/1.7, partially inactivated (hNav1.7 [13]) | remaining at 2 h (in vitro [14]) [%] | remaining at 4 h (in vitro [14]) [%] | remaining at 6 h (in vitro [14]) [%] | remaining at 8 h (in vitro [14]) [%] | remaining at 24 h (in vitro [14]) [%] | IC50 (hNav1.4 [15]) [nM] | IC50 (hNav1.3 [16]) [nM] | IC50 (hNav1.7 [17]) | % Peptide Remaining [18] [%] | remaining at 2 h (in vitro [19]) [%] | remaining at 4 h (in vitro [19]) [%] | remaining at 6 h (in vitro [19]) [%] | remaining at 8 h (in vitro [19]) [%] | remaining at 24 h (in vitro [19]) [%] | % Peptide Remaining [20] [%] | IC50 (hNav1.7 [21]) | IC50 (hNav1.4 [22]) | further results
1 | CC[C@H](C)[C@H](NC(=O)[C@H](CO)NC(=O)[C@H](CCCCN)NC(=O)[C@H](CCCNC(=N)N)NC(=O)[C@@H]1CSSC[C@@H]2NC(=O)[C@H](C)NC(=O)[C@H](CCCNC(=N)N)NC(=O)[C@H](CCCCN)NC(=O)[C@H](CO)NC(=O)[C@H](CC(=O)O)NC(=O)[C@@H]3CSSC[C@H](NC(=O)[C@H](CCC(=O)O)NC(=O)[C@H](CC(C)C)NC(=O)CNC(=O)[C@H](CCC(=O)O)NC(=O)[C@H](CSSC[C@H](NC(=O)[C@@H](N)Cc4ccc(O)cc4)C(=O)N[C@@H](CCC(N)=O)C(=O)N[C@@H](CCCCN)C(=O)N[C@@H](Cc4c[nH]c5ccccc45)C(=O)N[C@@H](CCSC)C(=O)N[C@@H](Cc4c[nH]c5ccccc45)C(=O)N[C@@H]([C@@H](C)O)C(=O)N3)NC2=O)C(=O)N[C@@H](CCCCN)C(=O)N[C@@H](CC(C)C)C(=O)N[C@@H](Cc2c[nH]c3ccccc23)C(=O)N1)C(N)=O [SEQ ID NO: 138, [Glu20;Ser28]JzTx-V(1-29)] |  |  |  |  |  |  |  |  |  |  |  |  |  |  |  |  |  |  |  |  | % Peptide Remaining [1]: 100%; remaining at 2 h (in vitro [2]): 86%; remaining at 4 h (in vitro [2]): 82%; remaining at 6 h (in vitro [2]): 72%; remaining at 8 h (in vitro [2]): 68%; remaining at 24 h (in vitro [2]): 49%; remaining at 2 h (in vitro [3]): 78%; remaining at 4 h (in vitro [3]): 75%; remaining at 6 h (in vitro [3]): 69%; remaining at 8 h (in vitro [3]): 62%; remaining at 24 h (in vitro [3]): 59%; % Peptide Remaining [4]: 100%
2 | CC[C@H](C)[C@H](NC(=O)[C@@H](NC(=O)[C@H](CCCCN)NC(=O)[C@H](CCCNC(=N)N)NC(=O)[C@@H]1CSSC[C@@H]2NC(=O)[C@H](C)NC(=O)[C@H](CCCNC(=N)N)NC(=O)[C@H](CCCCN)NC(=O)[C@H](CO)NC(=O)[C@H](CC(=O)O)NC(=O)[C@@H]3CSSC[C@H](NC(=O)[C@H](CCCNC(=N)N)NC(=O)[C@H](CC(C)C)NC(=O)CNC(=O)[C@H](CCC(=O)O)NC(=O)[C@H](CSSC[C@H](NC(=O)[C@@H](N)Cc4ccc(O)cc4)C(=O)N[C@@H](CCC(N)=O)C(=O)N[C@@H](CCCCN)C(=O)N[C@@H](Cc4c[nH]c5ccccc45)C(=O)N[C@@H](CCSC)C(=O)N[C@@H](Cc4c[nH]c5ccccc45)C(=O)N[C@@H]([C@@H](C)O)C(=O)N3)NC2=O)C(=O)N[C@@H](CCCCN)C(=O)N[C@@H](CC(C)C)C(=O)N[C@@H](Cc2c[nH]c3ccccc23)C(=O)N1)[C@@H](C)CC)C(N)=O [compound 2] | 7200 nM and > 7000 nM | 1600 nM and 2210 nM and 3250 nM | 1 |  |  |  |  |  |  |  |  |  |  |  |  |  |  |  |  |  | 1.x/1.7, fully non-inactivated (hNav1.3 [6]; hNav1.3 vs hNav1.7, fully non-inactivated): 99; 1.x/1.7, partially inactivated (hNav1.3 [6]; hNav1.3 vs hNav1.7, partially inactivated): 76; 1.x/1.7, fully non-inactivated (hNav1.4 [7]; hNav1.4 vs hNav1.7, fully non-inactivated): 75; 1.x/1.7, partially inactivated (hNav1.4 [7]; hNav1.4 vs hNav1.7, partially inactivated): 58; 1.x/1.7, fully non-inactivated ([9]; mTTX-S vs hNav1.7, fully non-inactivated): 530; 1.x/1.7, partially inactivated ([9]; mTTX-S vs hNav1.7, partially inactivated): 111; IC50 (hNav1.5 [10]; WCPC, hNav1.5, fully non-inactivated, n=2): 882 nM; 1.x/1.7, fully non-inactivated (hNav1.5 [10]; hNav1.5 vs hNav1.7, fully non-inactivated): 6230; 1.x/1.7, partially inactivated (hNav1.5 [10]; hNav1.5 vs hNav1.7, partially inactivated): 2641; 1.x/1.7, fully non-inactivated (hNav1.8 [11]; hNav1.8 vs hNav1.7, fully non-inactivated): 5724; 1.x/1.7, partially inactivated (hNav1.8 [11]; hNav1.8 vs hNav1.7, partially inactivated): 3282; IC50 (hNav1.8 [12]; hNav1.8, fully non-inactivated, read-out: Mean IC50, fully non-inactivated): 810 nM; IC50 (hNav1.8 [12]; hNav1.8, partially inactivated, read-out: Mean IC50, partially inactivated): 530 nM; 1.x/1.7, fully non-inactivated (hNav1.7 [13]; hNav1.7 vs hNav1.7, fully non-inactivated): 1
3 | CC[C@H](C)[C@H](NC(=O)[C@H](CCCCN)NC(=O)[C@H](CCCNC(=N)N)NC(=O)[C@@H]1CSSC[C@@H]2NC(=O)[C@H](C)NC(=O)[C@H](CCCNC(=N)N)NC(=O)[C@H](CCCCN)NC(=O)[C@H](CO)NC(=O)[C@H](CC(=O)O)NC(=O)[C@@H]3CSSC[C@H](NC(=O)[C@H](CCC(=O)O)NC(=O)[C@H](CC(C)C)NC(=O)CNC(=O)[C@H](CCC(=O)O)NC(=O)[C@H](CSSC[C@H](NC(=O)[C@@H](N)Cc4ccc(O)cc4)C(=O)N[C@@H](CCC(N)=O)C(=O)N[C@@H](CCCCN)C(=O)N[C@@H](Cc4c[nH]c5ccccc45)C(=O)N[C@@H](CCSC)C(=O)N[C@@H](Cc4c[nH]c5ccccc45)C(=O)N[C@@H]([C@@H](C)O)C(=O)N3)NC2=O)C(=O)N[C@@H](CCCCN)C(=O)N[C@@H](CC(C)C)C(=O)N[C@@H](Cc2c[nH]c3ccccc23)C(=O)N1)C(=O)N[C@@H](Cc1c[nH]c2ccccc12)C(N)=O [compound 112] | 6900 nM | 3420 nM and 3950 nM and 4410 nM and 1320 nM and 1620 nM | 1 | 88 | 82 | 85 | 85 | 77 | > 5000 | 3620 | 2.8 nM and 0.67 nM and 1.3 nM and 0.5 nM and 1.41 nM and 2.15 nM and 1.82 nM and 2.12 nM | 100 | 95 | 93 | 92 | 89 | 70 | 100 | 30 nM and 17 nM | 1130 nM and 824 nM and 1050 nM and 1350 nM and 2370 nM | 1.x/1.7, partially inactivated [9]: 1213; 1.x/1.7, partially inactivated ([9]; mTTX-S (fresh DRG) vs hNav1.7, partially inactivated): 917; IC50 (hNav1.7 [13]; WCPC, hNav1.7, partially inactivated, n=2): 0.23 nM
4 | CC[C@H](C)[C@H](NC(=O)[C@H](CO)NC(=O)[C@H](CCCCN)NC(=O)[C@H](CCCNC(=N)N)NC(=O)[C@@H]1CSSC[C@@H]2NC(=O)[C@H](C)NC(=O)[C@H](CCCNC(=N)N)NC(=O)[C@H](CCCCN)NC(=O)[C@H](CO)NC(=O)[C@H](CC(=O)O)NC(=O)[C@@H]3CSSC[C@H](NC(=O)[C@H](CCC(=O)O)NC(=O)[C@H](CC(C)C)NC(=O)CNC(=O)[C@H](CCC(=O)O)NC(=O)[C@H](CSSC[C@H](NC(=O)[C@@H](N)Cc4ccc(O)cc4)C(=O)N[C@@H](CCC(N)=O)C(=O)N[C@@H](CCCCN)C(=O)N[C@@H](Cc4c[nH]c5ccccc45)C(=O)N[C@@H](CCSC)C(=O)N[C@@H](Cc4c[nH]c5ccccc45)C(=O)N[C@@H]([C@@H](C)O)C(=O)N3)NC2=O)C(=O)N[C@@H](CCCCN)C(=O)N[C@@H](CC(C)C)C(=O)N[C@@H](Cc2c[nH]c3ccccc23)C(=O)N1)C(N)=O [compound 138] | 13900 nM and 9200 nM | > 10000 nM and 14600 nM |  | 64 | 61 | 55 | 51 | 50 | > 5000 | > 5000 | 3.3 nM and 2 nM and 0.4 nM | 100 | 90 | 81 | 71 | 67 | 59 | 100 | 80 nM and 150 nM | 4790 nM and 3580 nM and 2970 nM | Nav1.4/Nav1.7 (hNav1.4 [15]; ratio of IonWorks Quattro IC50 values): 62 and 34
5 | Cc1cccc(C)c1OCC(C)N (stereo not drawn) [mexilitine, reference compound] |  |  |  |  |  |  |  |  |  |  |  |  |  |  |  |  |  |  |  |  | thermal latency / thermal hyperalgesia (male CD-1 mice [23]): significantly reverse thermal hyperalgesia
6 | CN1CC[C@]23c4c5ccc(O)c4O[C@H]2[C@@H](O)C=C[C@H]3[C@H]1C5 [morphine] |  |  |  |  |  |  |  |  |  |  |  |  |  |  |  |  |  |  |  |  | formalin response, second phase (5-40 min) (male Sprague-Dawley rats): significantly reduce pain response; also recorded: significantly reduced; time spent lifting and/or licking the affected paw, second phase (5-40 min) (male CD-1 mice [24]): significantly reduce pain response; also recorded: significantly reduced the pain response; also recorded: did significantly reduce
